Read-outs that look alike come from different tables or passages of the source. Where a SMILES comes first, the peptide text is derived from it. Bridges are numbered along the chain shown (N, C = ends). [ ]: non-standard residue; d: D form. The star is where a group is joined. Ileψ(thiazoline)Cys = CC[C@H](C)[C@H](N)C1=N[C@H](C(=O)*)CS1; dOrn = NCCC[C@@H](N)C(=O)O

Experimental findings from patent US4803209A, “Substituted 2,3-diphenyl-1,2-dihydroquinoxalines” (International Minerals & Chemical Corp., priority 1987, dated 1989) are described below.

Assay [1] deals with Salmonella typhimurium. The assay is classed as cell-based.
The test system of assay [2] is antibiotic resistant E. coli (E.C. 324). The assay is classed as cell-based. Conditions: Gram Neg., 6 h, 37° C., aerobic.
The test system of assay [3] is E. coli strain 046 (E.C. 046). It is filed as cell-based.
For assay [4], the system named is Streptococcus sp. 1 X C15 (Strep C15). The assay is classed as cell-based.
In assay [5] the test system is Streptococcus sp. 1 X A7 (Strep A7). The assay is classed as cell-based.
Assay [6] relates to Clostridium perfringens (Cp). The assay is classed as cell-based. Conditions: Anaerobic, 6 h, 37° C.
Assay [7] concerns Bacteroides fragilis (Bf). Kind of assay: Antimicrobial growth inhibition, Bf. The assay is classed as cell-based. The settings on record: Anaerobic, 6 h, 37° C.
The nature of assay [8]: Growth promotion and feed utilization in chicks. It is filed as in vivo, chicks (broiler cockerels). The settings on record: 8 weeks.
Assay [9] has as its system Eimeria tenella Eli Lilly Strain 65 (Lilly 65). In words: In vitro anticoccidial test in chick kidney cell monolayers. The assay is classed as cell-based. Conditions: 72 h, 3 days, read-out: % Inhibition of Coccidia.
The mark [10] stands for this setting: experiment set 1, 75 ppm in feed.
[11] abbreviates: experiment set 2, 50 ppm in feed.
Setting [12] is: experiment set 4, 50 ppm in feed.

Take `CC[C@H](C)[C@H](N)C1=N[C@H](C(=O)N[C@@H](CC(C)C)C(=O)N[C@H](CCC(=O)O)C(=O)N[C@H](C(=O)N[C@H]2CCCCNC(=O)[C@H](CC(N)=O)NC(=O)[C@@H](CC(=O)O)NC(=O)[C@H](Cc3cnc[nH]3)NC(=O)[C@@H](Cc3ccccc3)NC(=O)[C@H]([C@@H](C)CC)NC(=O)[C@@H](CCCN)NC2=O)[C@@H](C)CC)CS1` [Bacitracin] ({Ileψ(thiazoline)Cys}-L[dE]IK[dOrn]I[dF]H[dD]N; lactam 4-C): the “Growth of S.T. in the presence of the test compound” value in assay [1] (6.4 ppm) and in assay [1] (64 ppm) was “+” each time. For the same compound, the “Growth of E.C. 324 in the presence of the test compound” value in assay [2] (6.4 ppm) and in assay [2] (64 ppm) was “+” each time. In addition, the “Growth of E.C. 046 in the presence of the test compound” value in assay [3] (6.4 ppm) and in assay [3] (64 ppm) was “+” each time. Moreover, the “Growth of Strep C15 in the presence of the test compound” value (“Growth of Strep C15” for short) in [4] (6.4 ppm) and in assay [4] (64 ppm) was “-” in each case. Further, the “Growth of Strep A7 in the presence of the test compound” value (from here on “Growth of Strep A7”) in assay [5] (6.4 ppm) and in [5] (64 ppm) was “-” in each case. Also, the “Growth of Cp in the presence of the test compound” value (“Growth of Cp” for short) in assay [6] (6.4 ppm) is “+”; in assay [6] (64 ppm) it was “-”. Besides, the “Growth of Bf in the presence of the test compound” value (shortened to “Growth of Bf”) in [7] (6.4 ppm) and in [7] (64 ppm) was “-” each time. Besides, the entries for the “feed efficiency (% better or worse than control)” value in assay [8] (setting [10]) and in [8] (setting [11]) were 19% and 32%, respectively. In addition, the “weight gain (% better or worse than control)” value in assay [8] (setting [10]) stood at 25%; in [8] (setting [11]) it was 40%.

For the compound `CN(C)[C@@H]1C(O)=C(C(N)=O)C(=O)[C@@]2(O)C(O)=C3C(=O)c4c(O)ccc(Cl)c4[C@@](C)(O)[C@H]3C[C@@H]12` [Chlortetracycline], the “Growth of S.T. in the presence of the test compound” value in assay [1] (6.4 ppm) and in assay [1] (64 ppm) was “-” each time. For the same compound, the “Growth of E.C. 324 in the presence of the test compound” value in assay [2] (6.4 ppm) is “+”; in [2] (64 ppm), “-”. Moreover, the figures for the “Growth of E.C. 046 in the presence of the test compound” value in [3] (6.4 ppm) and in [3] (64 ppm) were “+” and “-”, respectively. For the same compound, the “Growth of Strep C15” value in assay [4] (6.4 ppm) and in assay [4] (64 ppm) was “-” each time. Further, the “Growth of Strep A7” value in assay [5] (6.4 ppm) and in assay [5] (64 ppm) was “-” in each case. In addition, the “Growth of Cp” value in assay [6] (6.4 ppm) and in [6] (64 ppm) was “+” each time. Moreover, the “Growth of Bf” value was “+” in assay [7] (6.4 ppm) and “-” in assay [7] (64 ppm).

As to `CC[C@H]1OC(=O)[C@H](C)[C@@H](O[C@H]2C[C@@](C)(OC)[C@@H](O)[C@H](C)O2)[C@H](C)[C@@H](O[C@@H]2O[C@H](C)C[C@H](N(C)C)[C@H]2O)[C@](C)(O)C[C@@H](C)C(=O)[C@H](C)[C@@H](O)[C@]1(C)O` [Erythromycin], the “Growth of S.T. in the presence of the test compound” value is listed as “+” in assay [1] (6.4 ppm) and “-” in assay [1] (64 ppm). Besides, the “Growth of E.C. 324 in the presence of the test compound” value in assay [2] (6.4 ppm) and in [2] (64 ppm) was “+” each time. Also, the “Growth of E.C. 046 in the presence of the test compound” value in assay [3] (6.4 ppm) is “+”; in [3] (64 ppm) it was “-”. Also, the “Growth of Strep C15” value in assay [4] (6.4 ppm) and in assay [4] (64 ppm) was “-” in each case. Further, the “Growth of Strep A7” value in [5] (6.4 ppm) and in assay [5] (64 ppm) was “-” each time. Besides, the “Growth of Cp” value in [6] (6.4 ppm) and in assay [6] (64 ppm) was “+” in each case. Besides, the entries for the “Growth of Bf” value in assay [7] (6.4 ppm) and in assay [7] (64 ppm) were “+” and “-”, respectively.

Consider `Clc1ccc(C2=Nc3cc(Cl)c(Cl)cc3NC2c2ccc(Cl)cc2Cl)c(Cl)c1` (centres unmarked) [Example 3, 2,3-di(2,4-dichlorophenyl)-6,7-dichloro-1,2-dihydroquinoxaline], for which, in [9], the inhibition – broadly, how much of the control response was suppressed – at 0.1 ppm stood at 88.6% and the inhibition at 10 ppm worked out at 98%.

Take `Clc1ccc(C2=Nc3ccccc3NC2c2ccc(Cl)cc2Cl)c(Cl)c1` (centres unmarked) [Example 6, 2,3-di(2,4-dichlorophenyl)-1,2-dihydroquinoxaline]: in assay [9], the inhibition at 0.1 ppm came out at 60% and the inhibition at 10 ppm worked out at 100%.

For the compound `NC[C@H]1O[C@H](O[C@H]2[C@H](O)[C@@H](O[C@H]3O[C@H](CO)[C@@H](O)[C@H](N)[C@H]3O)[C@H](N)C[C@@H]2N)[C@H](O)[C@@H](O)[C@@H]1O` [Kanamycin], the “Growth of S.T. in the presence of the test compound” value is “+” in assay [1] (6.4 ppm) and “-” in assay [1] (64 ppm). Moreover, the results for the “Growth of E.C. 324 in the presence of the test compound” value in [2] (6.4 ppm) and in assay [2] (64 ppm) were “+” and “-”, respectively. Besides, the “Growth of E.C. 046 in the presence of the test compound” value in assay [3] (6.4 ppm) and in [3] (64 ppm) was “+” in each case. The “Growth of Strep C15” value in [4] (6.4 ppm) and in assay [4] (64 ppm) was “-” in each case. In addition, the “Growth of Strep A7” value in assay [5] (6.4 ppm) and in [5] (64 ppm) was “-” each time. Also, the “Growth of Cp” value in [6] (6.4 ppm) and in [6] (64 ppm) was “+” each time. Moreover, the “Growth of Bf” value in assay [7] (6.4 ppm) and in assay [7] (64 ppm) was “-” in each case. For the same compound, in [8] (setting [12]), the “feed efficiency (% better or worse than control)” value was 19%. In addition, the “weight gain (% better or worse than control)” value in [8] (setting [12]) was determined as 14%.

As for `CC[C@H]1OC(=O)C[C@@H](O)[C@H](C)[C@@H](O[C@@H]2O[C@H](C)[C@@H](O[C@H]3C[C@@](C)(O)[C@@H](O)[C@H](C)O3)[C@H](N(C)C)[C@H]2O)[C@@H](CC=O)C[C@@H](C)C(=O)/C=C/C(C)=C/[C@@H]1CO[C@@H]1O[C@H](C)[C@@H](O)[C@@H](OC)[C@H]1OC` [Tylosin], the “Growth of S.T. in the presence of the test compound” value in [1] (6.4 ppm) and in assay [1] (64 ppm) was “+” each time. Moreover, the “Growth of E.C. 324 in the presence of the test compound” value in [2] (6.4 ppm) and in [2] (64 ppm) was “+” each time. In addition, the “Growth of E.C. 046 in the presence of the test compound” value in assay [3] (6.4 ppm) and in assay [3] (64 ppm) was “+” each time. Further, the “Growth of Strep C15” value in assay [4] (6.4 ppm) and in assay [4] (64 ppm) was “-” in each case. In addition, the “Growth of Strep A7” value in assay [5] (6.4 ppm) and in assay [5] (64 ppm) was “-” in each case. Moreover, the “Growth of Cp” value in [6] (6.4 ppm) is on record as “+”; in assay [6] (64 ppm), “-”. Also, the “Growth of Bf” value in assay [7] (6.4 ppm) and in assay [7] (64 ppm) was “-” each time.
